A short description of data set [1]: Solubility of saturated solutions determined by HPLC. The data set is classed as physicochemical. The procedure: Saturated solutions of {4,6-bis(dimethylamino)-2-(4-(4-(trifluoromethyl)-benzamido)benzyl)pyrimidin-5-yl}acetic acid of Formula I in the solvents listed in Table 1 were prepared from the acid predominantly in Form I, at both 25 and 50° C.
The nature of data set [2]: Thermogravimetric analysis (thermal stability). The data set is classed as physicochemical. The settings on record: TGA, heating rate 20° C./min. The procedure: The thermogravimetric analysis was also conducted on a Mettler 850, TA 2920. Samples were placed into a ceramic or aluminum sample pan. A heating rate of 20° C./min was employed over a temperature range from 20° C. to 600° C.

In a further data set the target is T1, CRTH2 (Homo sapiens, UniProt Q9Y5Y4).
T1 construct: expressed in transfected cells
T1 sequence (Q9Y5Y4 1-395): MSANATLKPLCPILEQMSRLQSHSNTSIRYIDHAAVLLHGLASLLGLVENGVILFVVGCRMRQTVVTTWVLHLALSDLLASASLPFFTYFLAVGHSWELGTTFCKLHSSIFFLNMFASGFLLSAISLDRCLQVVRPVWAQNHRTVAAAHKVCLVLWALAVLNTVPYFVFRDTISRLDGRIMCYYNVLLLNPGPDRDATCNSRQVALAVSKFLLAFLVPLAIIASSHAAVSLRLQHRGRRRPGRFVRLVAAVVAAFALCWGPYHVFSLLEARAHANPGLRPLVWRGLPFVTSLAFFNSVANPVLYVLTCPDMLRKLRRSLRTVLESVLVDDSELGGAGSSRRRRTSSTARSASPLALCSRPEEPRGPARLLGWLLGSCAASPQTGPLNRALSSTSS
The experiment in a line: Competitive radioligand (3H-PGD2) binding assay, CRTH2-transfected cells. The settings on record: competition with 1 nM 3H-PGD2, CRTH2-transfected cells, FIG. 10.

The target in a further data set is T2, DP1 (Homo sapiens, UniProt Q13258).
T2 sequence (Q13258 1-359): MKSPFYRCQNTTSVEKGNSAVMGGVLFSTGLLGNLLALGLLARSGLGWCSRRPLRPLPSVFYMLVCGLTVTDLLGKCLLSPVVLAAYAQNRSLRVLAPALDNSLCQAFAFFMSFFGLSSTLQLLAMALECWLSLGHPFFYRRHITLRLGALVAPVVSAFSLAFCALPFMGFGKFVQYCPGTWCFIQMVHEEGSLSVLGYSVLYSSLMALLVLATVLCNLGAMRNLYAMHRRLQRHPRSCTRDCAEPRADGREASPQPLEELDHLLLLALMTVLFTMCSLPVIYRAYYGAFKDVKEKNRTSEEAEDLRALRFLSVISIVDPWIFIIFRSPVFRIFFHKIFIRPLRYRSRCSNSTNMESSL
The experiment in a line: Competitive radioligand (3H-PGD2) binding assay, DP1-transfected cells. The settings on record: competition with 1 nM 3H-PGD2, DP1-transfected cells, FIG. 11. The procedure: The binding affinity and selectivity of the amine salts of 4,6-bis(dimethylamino)-2-(4-(4-(trifluoromethyl)benzamido)benzyl)pyrimidin-5-yl}acetic acid provided herein were evaluated using a competitive radioligand binding assay with stably-transfected cell lines expressing CRTH2 or DP1.
Prostaglandin D2 and 13,14-dihydro-15-keto PGD2 were obtained from Cayman Chemical (Ann Arbor, Mich.). Radiolabelled PGD2 (5,6,8,9,12,14,15-^3H(N)) with a specific activity of 160 Ci/mmol was obtained from PerkinElmer (Boston, Mass.). Cell culture medium RPMI 1640, HEPES buffer, phosphate buffered saline (PBS), L-glutamine, and penicillin-streptomycin solution were obtained from Mediatech Inc. (Herndon, Va.). Fetal calf serum (FCS) was obtained from Cambrex (Walkersville, Md.). Puromycin was obtained from Invitrogen (San Diego, Calif.). Poly(ethyleneimine) (PEI) was obtained from Acros Organics (Morris Plains, N.J.). […]
Radioligand binding analyses were performed according to the methods of Sugimoto et al. (J. Pharm. Exp. Therap. 2003, 305, 347-352; Eur. J. Pharmacol. 2005, 524, 30-37). […] Scintillant (50 μL; Microscint™ 20, Perkin Elmer, Boston, Mass.) was added to each well and the radioactivity was counted on a TopCount (Packard Bioscience, Meriden, Conn.). […]

Values after ≈ are worked out from the molar mass of the structure shown. Like-named read-outs stand apart in the source and are kept apart here. Where only a bound is given, the exact number is not on record here.

Text for CRTH2: Prostaglandin D2 and 13,14-dihydro-15-keto PGD2 were obtained from Cayman Chemical (Ann Arbor, Mich.). Radiolabelled PGD2 (5,6,8,9,12,14,15-^3H(N)) with a specific activity of 160 Ci/mmol was obtained from PerkinElmer (Boston, Mass.). Cell culture medium RPMI 1640, HEPES buffer, phosphate buffered saline (PBS), L-glutamine, and penicillin-streptomycin solution were obtained from Mediatech Inc. (Herndon, Va.). Fetal calf serum (FCS) was obtained from Cambrex (Walkersville, Md.). Puromycin was obtained from Invitrogen (San Diego, Calif.). […]
The surface expression of CRTH2 on the transfected cell lines was monitored periodically during culture and prior to each competitive radioligand binding assay. […] The cells were then washed in 2 mL of FACS buffer (PBS containing 1% BSA (Fraction V) and 0.1% sodium azide. The cells were subsequently incubated on ice with a FITC-conjugated anti-rat antibody (goat anti-rat Ig-FITC). After washed with cold FACS buffer, the cells were analyzed using a FACScan II analyzer and CellQuest software, both from Becton Dickinson (Mountain View, Calif.). […]

With `CN(C)c1nc(Cc2ccc(NC(=O)c3ccc(C(F)(F)F)cc3)cc2)nc(N(C)C)c1CC(=O)O` [Form I, {4,6-bis(dimethylamino)-2-(4-(4-(trifluoromethyl)benzamido)benzyl)pyrimidin-5-yl}acetic acid], the solubility – broadly, how much of the substance goes into solution per volume – in data set [1] (water, at room temperature, read-out: aqueous solubility) is around 3 µg/mL (≈ 5.98 µM). For the same compound, in data set [2], the “decomposition temperature (no significant weight loss until decomposition)” value is “around 200 °C”.
Consider `CN(C)c1nc(Cc2ccc(NC(=O)c3ccc(C(F)(F)F)cc3)cc2)nc(N(C)C)c1CC(=O)O` [Formula I, {4,6-bis(dimethylamino)-2-(4-(4-(trifluoro-methyl)benzamido)benzyl)pyrimidin-5-yl}acetic acid], for which the solubility amounted to 3370 µg/mL in data set [1] (organic solvent or mixture, thermodynamic from solid, 1,4-Dioxane, 25° C., read-out: Solubility); 9830 µg/mL in data set [1] (organic solvent or mixture, thermodynamic from solid, 1,4-Dioxane, 50° C., read-out: Solubility); 790 µg/mL in data set [1] (organic solvent or mixture, thermodynamic from solid, 1-Propanol, 25° C., read-out: Solubility); 2410 µg/mL in data set [1] (organic solvent or mixture, thermodynamic from solid, 1-Propanol, 50° C., read-out: Solubility); 5350 µg/mL in data set [1] (organic solvent or mixture, thermodynamic from solid, 2-Methoxyethanol, 25° C., read-out: Solubility); 8550 µg/mL in data set [1] (organic solvent or mixture, thermodynamic from solid, 2-Methoxyethanol, 50° C., read-out: Solubility). Also, the solubility is 2620 µg/mL in data set [1] (organic solvent or mixture, thermodynamic from solid, Acetone, 25° C., read-out: Solubility); 3340 µg/mL in data set [1] (organic solvent or mixture, thermodynamic from solid, Acetone, 50° C., read-out: Solubility); above 50000 µg/mL in data set [1] (organic solvent or mixture, thermodynamic from solid, DMSO, 25° C., read-out: Solubility); above 50000 µg/mL in data set [1] (organic solvent or mixture, thermodynamic from solid, DMSO, 50° C., read-out: Solubility); 1090 µg/mL in data set [1] (organic solvent or mixture, thermodynamic from solid, Ethanol, 25° C., read-out: Solubility); 2250 µg/mL in data set [1] (organic solvent or mixture, thermodynamic from solid, Ethanol, 50° C., read-out: Solubility). The solubility in data set [1] (organic solvent or mixture, thermodynamic from solid, Ethyl acetate, 25° C., read-out: Solubility) is 530 µg/mL; in data set [1] (organic solvent or mixture, thermodynamic from solid, Ethyl acetate, 50° C., read-out: Solubility), 1270 µg/mL; in data set [1] (organic solvent or mixture, thermodynamic from solid, Ethyl formate, 25° C., read-out: Solubility) it was 390 µg/mL; in data set [1] (organic solvent or mixture, thermodynamic from solid, Ethyl formate, 50° C., read-out: Solubility), 1510 µg/mL; in data set [1] (organic solvent or mixture, thermodynamic from solid, Isobutyl acetate, 25° C., read-out: Solubility), 200 µg/mL; in data set [1] (organic solvent or mixture, thermodynamic from solid, Isobutyl acetate, 50° C., read-out: Solubility), 830 µg/mL. Moreover, the solubility was determined as 770 µg/mL in data set [1] (organic solvent or mixture, thermodynamic from solid, Isopropanol, 25° C., read-out: Solubility); 1960 µg/mL in data set [1] (organic solvent or mixture, thermodynamic from solid, Isopropanol, 50° C., read-out: Solubility); 270 µg/mL in data set [1] (organic solvent or mixture, thermodynamic from solid, Isopropyl acetate, 25° C., read-out: Solubility); 780 µg/mL in data set [1] (organic solvent or mixture, thermodynamic from solid, Isopropyl acetate, 50° C., read-out: Solubility); 540 µg/mL in data set [1] (organic solvent or mixture, thermodynamic from solid, MIBK, 25° C., read-out: Solubility); 1800 µg/mL in data set [1] (organic solvent or mixture, thermodynamic from solid, MIBK, 50° C., read-out: Solubility). In addition, the solubility turned out to be 90 µg/mL in data set [1] (organic solvent or mixture, thermodynamic from solid, MTBE, 25° C., read-out: Solubility); 410 µg/mL in data set [1] (organic solvent or mixture, thermodynamic from solid, MTBE, 50° C., read-out: Solubility); 2230 µg/mL in data set [1] (organic solvent or mixture, thermodynamic from solid, Methanol, 25° C., read-out: Solubility); 3040 µg/mL in data set [1] (organic solvent or mixture, thermodynamic from solid, Methanol, 50° C., read-out: Solubility); 30 µg/mL in data set [1] (organic solvent or mixture, thermodynamic from solid, Toluene, 50° C., read-out: Solubility); 790 µg/mL in data set [1] (organic solvent or mixture, thermodynamic from solid, n-Butanol, 25° C., read-out: Solubility). Besides, the solubility in data set [1] (organic solvent or mixture, thermodynamic from solid, n-Butanol, 50° C., read-out: Solubility) was 2110 µg/mL; in data set [1] (saturated solution in DMF, organic solvent or mixture, thermodynamic from solid, DMF, 25° C., read-out: Solubility), above 50000 µg/mL; in data set [1] (saturated solution in DMF, organic solvent or mixture, thermodynamic from solid, DMF, 50° C., read-out: Solubility), above 50000 µg/mL; in data set [1] (saturated solution in MEK, organic solvent or mixture, thermodynamic from solid, MEK, 25° C., read-out: Solubility), 1980 µg/mL; in data set [1] (saturated solution in MEK, organic solvent or mixture, thermodynamic from solid, MEK, 50° C., read-out: Solubility) it was 4260 µg/mL; in data set [1] (saturated solution in THF, organic solvent or mixture, thermodynamic from solid, THF, 25° C., read-out: Solubility) it was 11300 µg/mL. Besides, the solubility in data set [1] (saturated solution in THF, organic solvent or mixture, thermodynamic from solid, THF, 50° C., read-out: Solubility) came to 32700 µg/mL; in data set [1] (saturated solution in acetonitrile, organic solvent or mixture, thermodynamic from solid, Acetonitrile, 25° C., read-out: Solubility) it was 240 µg/mL; in data set [1] (saturated solution in acetonitrile, organic solvent or mixture, thermodynamic from solid, Acetonitrile, 50° C., read-out: Solubility) it was 940 µg/mL; in data set [1] (saturated solution in chloroform, organic solvent or mixture, thermodynamic from solid, Chloroform, 25° C., read-out: Solubility), 170 µg/mL; in data set [1] (saturated solution in chloroform, organic solvent or mixture, thermodynamic from solid, Chloroform, 50° C., read-out: Solubility), 350 µg/mL; in data set [1] (saturated solution in dichloromethane, organic solvent or mixture, thermodynamic from solid, Dichloromethane, 25° C., read-out: Solubility), 70 µg/mL. In data set [1] (thermodynamic from solid, Water, 50° C., read-out: Solubility), the solubility was determined as 20 µg/mL. Moreover, the “binding affinity for CRTH2” value on CRTH2 is recorded as “high affinity”. In addition, the “binding selectivity for CRTH2 versus DP1” value on DP1 is given as “binds selectively to CRTH2”.

The record behind these values is patent US8507005B2, “Particulates of a CRTH2 antagonist” (Actimis Pharmaceuticals, Inc., priority 2007, dated 2013).
